Assay results as given in patent publication US9023987B2, “Cell-permeable peptide” (Seoul National University R&DB Foundation, priority 2010, dated 2015).

Columns and labels:
Smurf1 = target: T1, Smurf1 (Homo sapiens, UniProt Q9HCE7); assay: Immuno-precipitation and western blot of Smad1/5/8 ubiquitination in hMSC; format: cell-based; details: hMSC pre-treated with MG132, 10 mM peptide, 1 hour 30 minutes; compared with MG132 only; FIG. 2B
T1 construct: endogenous in cells; host or cells: human mesenchymal stem cells (hMSC)
Description: In order to confirm presence or absence of the active site of the cell permeable peptide-bone differentiation inducing sequence conjugate synthesized by the method in Example 1 for binding to Smurf1, an immuno-precipitation method and a western blot assay method were used. The present experimental method is applied in order to confirm that the cell permeable peptide-bone differentiation inducing sequence conjugate synthesized by the method in Example 1 may suppress a bioactivity of Smurf1 decomposing Smd1/5/8 as one of the E3 ligases playing a role in ubiquitin ligation.
1×10^6 human mesenchymal stem cells (hMSC) used as a model cell in the present experiment were plated in each dish and then cultured in a general medium for 20 hours (overnight incubation). Then the cells was cultured in an hMSC basal medium (MSCBM™, LONZA, USA) containing 0.5% fetal bovine serum (FBS, GIBCO, USA) for 20 hours (overnight starvation). After overnight starvation in 0.5% MSCBM™, […] MG132 (MG132; proteasome inhibitor, Merck, USA) was added to the same medium to allow the cells to be pre-treated for 2 hours. Thereafter, the cell permeable peptide-bone differentiation inducing sequence conjugate synthesized by the method in Example 1 and peptides of Comparative Examples 1 and 2 were injected into each dish at a concentration of […], respectively, and cultured for 1 hour 30 minutes. […]

[1] = system: Smad1/5/8 phosphorylation, RUNX2; assay: Western blot of signal transduction proteins in cytoplasmic and nuclear fractions; format: cell-based, human; details: 10 μm, 1.5 hours, hMSC, compared with PBS; FIG. 4D
Description: In order to confirm cell differentiation ability of the cell permeable peptide-bone differentiation inducing sequence conjugate, using proteins serving an important role in signal transduction pathways in the cytoplasmic fraction and the nuclear fraction, human mesenchymal stem cells (hMSC) were seeded in each well of a 10 cm-dish at 1×10^6/well, and then incubated in a general medium for 20 hours (overnight) for cell stabilization. After 20 hours of the incubation, the cells were treated with the cell permeable peptide-bone differentiation inducing sequence conjugate and the bone differentiation inducing sequence of Comparative Example 2 of 10 μm for each for 1.5 hours.
After that, in order to compare the expression degree of intercellular protein, in each of the cells treated with the cell permeable peptide-bone differentiation inducing sequence conjugate of Example 1 and the bone differentiation inducing sequence of Comparative Example 2, cytoplasm and nucleus were separated using NE-PER nuclear and cytoplasmic extraction reagents according to the manufacturer's instructions (Pierce, USA). The protein in the hMSC lysis solution containing the separated cytoplasm and nucleus was determined by Bradford's assay, and then subjected to electrophoresis using 10% polyacrylamide gel at 120 volts for 4 hours. […]

T1 sequence (Q9HCE7 whole entry): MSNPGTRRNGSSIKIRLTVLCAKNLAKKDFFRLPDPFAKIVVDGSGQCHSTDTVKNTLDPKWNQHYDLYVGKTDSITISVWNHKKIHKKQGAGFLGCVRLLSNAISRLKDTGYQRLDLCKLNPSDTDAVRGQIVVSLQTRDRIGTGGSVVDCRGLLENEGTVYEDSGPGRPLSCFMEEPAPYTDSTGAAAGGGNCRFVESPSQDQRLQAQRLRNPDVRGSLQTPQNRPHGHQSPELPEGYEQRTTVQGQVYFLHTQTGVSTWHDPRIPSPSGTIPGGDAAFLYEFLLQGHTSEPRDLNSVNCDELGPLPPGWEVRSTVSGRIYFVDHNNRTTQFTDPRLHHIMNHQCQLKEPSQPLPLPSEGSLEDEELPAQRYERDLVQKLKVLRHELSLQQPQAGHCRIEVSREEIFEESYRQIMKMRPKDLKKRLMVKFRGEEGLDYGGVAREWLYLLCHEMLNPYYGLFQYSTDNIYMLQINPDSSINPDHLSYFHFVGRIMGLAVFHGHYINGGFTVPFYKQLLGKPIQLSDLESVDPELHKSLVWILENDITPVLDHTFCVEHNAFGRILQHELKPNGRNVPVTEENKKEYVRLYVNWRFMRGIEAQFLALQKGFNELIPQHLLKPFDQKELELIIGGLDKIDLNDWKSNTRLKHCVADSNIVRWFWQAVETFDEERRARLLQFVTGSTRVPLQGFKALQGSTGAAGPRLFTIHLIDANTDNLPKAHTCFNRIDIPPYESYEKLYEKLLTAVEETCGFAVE

Substance: NH2-GAPPPADSAP-SSRKKNPNCRRH-C-COONH2 (H-GAPPPADSAPSSRKKNPNCRRHC-NH2; cysteine pairing not given here) [Example 1]
- ubiquitination of Smad1/5/8 (ubiquitin antibody after Smad1/5/8 immuno-precipitation) (Smurf1): ubiquitination of Smad1/5/8 was suppressed
- RUNX2 in the nucleus (western blot) [1]: noticeably increased RUNX2
- phosphorylation of Smad1/5/8 (western blot) [1]: exhibited Smad 1/5/8 phosphorylation
